Measured values published in paper PMC6414696 (mBio, 2019).
≈ marks a conversion by molar mass, not a printed value.

Key:
OXA-23 = conditions: cited from earlier work
OXA-24/40 = conditions: cited from earlier work
OXA-48 = conditions: cited from earlier work
OXA 24/40 = conditions: cited from earlier work
OXA-10 = OXA-10 from Pseudomonas aeruginosa; cited from earlier work
A. baumannii ARC5955 = experiment: Neutropenic murine thigh infection model; format: in vivo; conditions: thigh tissue, CD-1 mice, 24 h after initiation of therapy, 40 mg/kg SC/q24h; for Change in log10 CFU/g: 40 mg/kg
[1] = tested on: A. baumannii clinical isolates; experiment: Broth microdilution MIC susceptibility testing against carbapenems; format: cell-based, Acinetobacter baumannii
[2] = Acinetobacter baumannii, strain CCF 1MR
[3] = Acinetobacter baumannii, strain CCF 2MR
[4] = Acinetobacter baumannii, strain CCF 3MR
[5] = Acinetobacter baumannii, strain CCF 4MR
[6] = Acinetobacter baumannii, strain CCF 5MR
[7] = Acinetobacter baumannii, strain CCF 6MR
[8] = Acinetobacter baumannii, strain CCF 7MR
[9] = Acinetobacter baumannii, strain CCF 8MR
[10] = Acinetobacter baumannii, strain UH AB202
[11] = Acinetobacter baumannii, strain UH AB461
[12] = Acinetobacter baumannii, strain UH AB477
[13] = Acinetobacter baumannii, strain UH AB487
[14] = Acinetobacter baumannii, strain UH AB489
[15] = Acinetobacter baumannii, strain UH AB490
[16] = Acinetobacter baumannii, strain UH AB491
[17] = Acinetobacter baumannii, strain UH AB636
[18] = Acinetobacter baumannii, strain UH AB660
[19] = Acinetobacter baumannii, strain UH AB667
[20] = Acinetobacter baumannii, strain VA-432
[21] = Acinetobacter baumannii, strain VA-433
[22] = Acinetobacter baumannii, strain VA-434
[23] = Acinetobacter baumannii, strain VA-435
[24] = Acinetobacter baumannii, strain VA-436
[25] = Acinetobacter baumannii, strain VA-437
[26] = Acinetobacter baumannii, strain VA-438
[27] = Acinetobacter baumannii, strain VA-505

Compound: N#CC1CC[C@@H]2CN1C(=O)N2OS(=O)(=O)O (stereo partly shown) [WCK 4234]
- k2/Ki (OXA-23): 1.7 ± 0.2 × 10^4 M^−1 s^−1
- k2/Ki (OXA-24/40): 9.6 ± 1 × 10^3 M^−1 s^−1

Compound: NC(=O)[C@@H]1CC[C@@H]2CN1C(=O)N2OS(=O)(=O)O [Avibactam, avibactam]
- k2/Ki (OXA-48): 1.4 ± 0.1 × 10^3 M^−1 s^−1
- k2/Ki (OXA-10): 1.1 ± 0.1 × 10^1 M^−1 s^−1

Compound: Colistin
- Log10 CFU/g (A. baumannii ARC5955): 5.3 log10 CFU/g
- Change in log10 CFU/g (A. baumannii ARC5955): −1.4 log10 CFU/g
- Change in log10 CFU/g (A. baumannii ARC5955; listed as colistin): −1.36 log10 CFU/g

Compound: C[C@@H](O)[C@H]1C(=O)N2C(C(=O)O)=C(SCCN=CN)C[C@H]12 [Imipenem]
- MIC [1, 2]: > 8 µg/mL
- MIC [1, 3]: > 8 µg/mL
- MIC [1, 4]: > 8 µg/mL
- MIC [1, 5]: > 8 µg/mL
- MIC [1, 6]: > 8 µg/mL
- MIC [1, 7]: > 8 µg/mL
- MIC [1, 8]: > 8 µg/mL
- MIC [1, 9]: > 8 µg/mL
- MIC [1, 10]: > 8 µg/mL
- MIC [1, 11]: > 8 µg/mL
- MIC [1, 12]: > 8 µg/mL
- MIC [1, 13]: > 8 µg/mL
- MIC [1, 14]: > 8 µg/mL
- MIC [1, 15]: > 8 µg/mL
- MIC [1, 16]: > 8 µg/mL
- MIC [1, 17]: > 8 µg/mL
- MIC [1, 18]: > 8 µg/mL
- MIC [1, 19]: > 8 µg/mL
- MIC [1, 20]: 32 µg/mL (≈ 107 µM)
- MIC [1, 21]: 16 µg/mL (≈ 53.4 µM)
- MIC [1, 22]: 64 µg/mL (≈ 214 µM)
- MIC [1, 23]: 32 µg/mL (≈ 107 µM)
- MIC [1, 24]: 64 µg/mL (≈ 214 µM)
- MIC [1, 25]: 32 µg/mL (≈ 107 µM)
- MIC [1, 26]: 16 µg/mL (≈ 53.4 µM)
- MIC [1, 27]: 32 µg/mL (≈ 107 µM)

Compound: CC1=C[C@@H](C(N)=O)N2C[C@@H]1N(OS(=O)(=O)O)C2=O [compound 3]
- IC50 (OXA 24/40): 0.36 µM

Compound: C[C@@H](O)[C@H]1C(=O)N2C(C(=O)O)=C(S[C@@H]3CN[C@H](C(=O)N(C)C)C3)[C@H](C)[C@H]12 [Meropenem]
- isolates resistant (R ≥ 8 according to CLSI) ([1]; 72 WRAMC isolates (seventeen of 72)): 24%
- MIC50 ([1]; Acinetobacter baumannii): 1 µg/mL (≈ 2.61 µM)
- MIC90 ([1]; Acinetobacter baumannii): 32 µg/mL (≈ 83.4 µM)
- MIC ([1]; Acinetobacter baumannii, strain AB001): 1 µg/mL (≈ 2.61 µM)
- MIC ([1]; Acinetobacter baumannii, strain AB002): 2 µg/mL (≈ 5.22 µM)
- MIC ([1]; Acinetobacter baumannii, strain AB003): 2 µg/mL (≈ 5.22 µM)
- MIC ([1]; Acinetobacter baumannii, strain AB004): 2 µg/mL (≈ 5.22 µM)
- MIC ([1]; Acinetobacter baumannii, strain AB005): 1 µg/mL (≈ 2.61 µM)
- MIC ([1]; Acinetobacter baumannii, strain AB006): 4 µg/mL (≈ 10.4 µM)
- MIC ([1]; Acinetobacter baumannii, strain AB007): 0.5 µg/mL (≈ 1.3 µM)
- MIC ([1]; Acinetobacter baumannii, strain AB008): 1 µg/mL (≈ 2.61 µM)
- MIC ([1]; Acinetobacter baumannii, strain AB009): 1 µg/mL (≈ 2.61 µM)
- MIC ([1]; Acinetobacter baumannii, strain AB010): 1 µg/mL (≈ 2.61 µM)
- MIC ([1]; Acinetobacter baumannii, strain AB011): 1 µg/mL (≈ 2.61 µM)
- MIC ([1]; Acinetobacter baumannii, strain AB012): 1 µg/mL (≈ 2.61 µM)
- MIC ([1]; Acinetobacter baumannii, strain AB013): 1 µg/mL (≈ 2.61 µM)
- MIC ([1]; Acinetobacter baumannii, strain AB014): 1 µg/mL (≈ 2.61 µM)
- MIC ([1]; Acinetobacter baumannii, strain AB015): 2 µg/mL (≈ 5.22 µM)
- MIC ([1]; Acinetobacter baumannii, strain AB016): 0.5 µg/mL (≈ 1.3 µM)
- MIC ([1]; Acinetobacter baumannii, strain AB017): 0.5 µg/mL (≈ 1.3 µM)
- MIC ([1]; Acinetobacter baumannii, strain AB018): 0.5 µg/mL (≈ 1.3 µM)
- MIC ([1]; Acinetobacter baumannii, strain AB019): 0.25 µg/mL (≈ 0.652 µM)
- MIC ([1]; Acinetobacter baumannii, strain AB020): 0.5 µg/mL (≈ 1.3 µM)
- MIC ([1]; Acinetobacter baumannii, strain AB021): 0.5 µg/mL (≈ 1.3 µM)
- MIC ([1]; Acinetobacter baumannii, strain AB022): 0.5 µg/mL (≈ 1.3 µM)
- MIC ([1]; Acinetobacter baumannii, strain AB023): 2 µg/mL (≈ 5.22 µM)
- MIC ([1]; Acinetobacter baumannii, strain AB024): 0.5 µg/mL (≈ 1.3 µM)
- MIC ([1]; Acinetobacter baumannii, strain AB025): 0.5 µg/mL (≈ 1.3 µM)
- MIC ([1]; Acinetobacter baumannii, strain AB026): 1 µg/mL (≈ 2.61 µM)
- MIC ([1]; Acinetobacter baumannii, strain AB027): 0.5 µg/mL (≈ 1.3 µM)
- MIC ([1]; Acinetobacter baumannii, strain AB028): 0.5 µg/mL (≈ 1.3 µM)
- MIC ([1]; Acinetobacter baumannii, strain AB029): 0.5 µg/mL (≈ 1.3 µM)
- MIC ([1]; Acinetobacter baumannii, strain AB030): 1 µg/mL (≈ 2.61 µM)
- MIC ([1]; Acinetobacter baumannii, strain AB031): 1 µg/mL (≈ 2.61 µM)
- MIC ([1]; Acinetobacter baumannii, strain AB032): 0.5 µg/mL (≈ 1.3 µM)
- MIC ([1]; Acinetobacter baumannii, strain AB033): 1 µg/mL (≈ 2.61 µM)
- MIC ([1]; Acinetobacter baumannii, strain AB034): 1 µg/mL (≈ 2.61 µM)
- MIC ([1]; Acinetobacter baumannii, strain AB035): 0.25 µg/mL (≈ 0.652 µM)
- MIC ([1]; Acinetobacter baumannii, strain AB036): 0.5 µg/mL (≈ 1.3 µM)
- MIC ([1]; Acinetobacter baumannii, strain AB037): 0.25 µg/mL (≈ 0.652 µM)
- MIC ([1]; Acinetobacter baumannii, strain AB038): 1 µg/mL (≈ 2.61 µM)
- MIC ([1]; Acinetobacter baumannii, strain AB039): 1 µg/mL (≈ 2.61 µM)
- MIC ([1]; Acinetobacter baumannii, strain AB040): 0.5 µg/mL (≈ 1.3 µM)
- MIC ([1]; Acinetobacter baumannii, strain AB041): 0.5 µg/mL (≈ 1.3 µM)
- MIC ([1]; Acinetobacter baumannii, strain AB042): 4 µg/mL (≈ 10.4 µM)
- MIC ([1]; Acinetobacter baumannii, strain AB043): 16 µg/mL (≈ 41.7 µM)
- MIC ([1]; Acinetobacter baumannii, strain AB044): 8 µg/mL (≈ 20.9 µM)
- MIC ([1]; Acinetobacter baumannii, strain AB045): 8 µg/mL (≈ 20.9 µM)
- MIC ([1]; Acinetobacter baumannii, strain AB046): 16 µg/mL (≈ 41.7 µM)
- MIC ([1]; Acinetobacter baumannii, strain AB047): 8 µg/mL (≈ 20.9 µM)
- MIC ([1]; Acinetobacter baumannii, strain AB048): 16 µg/mL (≈ 41.7 µM)
- MIC ([1]; Acinetobacter baumannii, strain AB049): 32 µg/mL (≈ 83.4 µM)
- MIC ([1]; Acinetobacter baumannii, strain AB050): 16 µg/mL (≈ 41.7 µM)
- MIC ([1]; Acinetobacter baumannii, strain AB051): 1 µg/mL (≈ 2.61 µM)
- MIC ([1]; Acinetobacter baumannii, strain AB052): 2 µg/mL (≈ 5.22 µM)
- MIC ([1]; Acinetobacter baumannii, strain AB053): 2 µg/mL (≈ 5.22 µM)
- MIC ([1]; Acinetobacter baumannii, strain AB054): 32 µg/mL (≈ 83.4 µM)
- MIC ([1]; Acinetobacter baumannii, strain AB055): 8 µg/mL (≈ 20.9 µM)
- MIC ([1]; Acinetobacter baumannii, strain AB056): 16 µg/mL (≈ 41.7 µM)
- MIC ([1]; Acinetobacter baumannii, strain AB057): 32 µg/mL (≈ 83.4 µM)
- MIC ([1]; Acinetobacter baumannii, strain AB058): 2 µg/mL (≈ 5.22 µM)
- MIC ([1]; Acinetobacter baumannii, strain AB059): 32 µg/mL (≈ 83.4 µM)
- MIC ([1]; Acinetobacter baumannii, strain AB060): 32 µg/mL (≈ 83.4 µM)
- MIC ([1]; Acinetobacter baumannii, strain AB061): 32 µg/mL (≈ 83.4 µM)
- MIC ([1]; Acinetobacter baumannii, strain AB062): 64 µg/mL (≈ 167 µM)
- MIC ([1]; Acinetobacter baumannii, strain AB063): 0.5 µg/mL (≈ 1.3 µM)
- MIC ([1]; Acinetobacter baumannii, strain AB064): 0.25 µg/mL (≈ 0.652 µM)
- MIC ([1]; Acinetobacter baumannii, strain AB065): 32 µg/mL (≈ 83.4 µM)
- MIC ([1]; Acinetobacter baumannii, strain AB066): 0.25 µg/mL (≈ 0.652 µM)
- MIC ([1]; Acinetobacter baumannii, strain AB067): 0.25 µg/mL (≈ 0.652 µM)
- MIC ([1]; Acinetobacter baumannii, strain AB068): 1 µg/mL (≈ 2.61 µM)
- MIC ([1]; Acinetobacter baumannii, strain AB069): 1 µg/mL (≈ 2.61 µM)
- MIC ([1]; Acinetobacter baumannii, strain AB070): 2 µg/mL (≈ 5.22 µM)
- MIC ([1]; Acinetobacter baumannii, strain AB071): 0.5 µg/mL (≈ 1.3 µM)
- MIC ([1]; Acinetobacter baumannii, strain AB072): 0.25 µg/mL (≈ 0.652 µM)
- MIC [1, 2]: > 8 µg/mL
- MIC [1, 3]: > 8 µg/mL
- MIC [1, 4]: > 8 µg/mL
- MIC [1, 5]: > 8 µg/mL
- MIC [1, 6]: > 8 µg/mL
- MIC [1, 7]: > 8 µg/mL
- MIC [1, 8]: > 8 µg/mL
- MIC [1, 9]: > 8 µg/mL
- MIC [1, 10]: > 8 µg/mL
- MIC [1, 11]: > 8 µg/mL
- MIC [1, 12]: > 8 µg/mL
- MIC [1, 13]: > 8 µg/mL
- MIC [1, 14]: > 8 µg/mL
- MIC [1, 15]: > 8 µg/mL
- MIC [1, 16]: > 8 µg/mL
- MIC [1, 17]: > 8 µg/mL
- MIC [1, 18]: > 8 µg/mL
- MIC [1, 19]: > 8 µg/mL
- MIC [1, 20]: 64 µg/mL (≈ 167 µM)
- MIC [1, 21]: 32 µg/mL (≈ 83.4 µM)
- MIC [1, 22]: 64 µg/mL (≈ 167 µM)
- MIC [1, 23]: 64 µg/mL (≈ 167 µM)
- MIC [1, 24]: 64 µg/mL (≈ 167 µM)
- MIC [1, 25]: 32 µg/mL (≈ 83.4 µM)
- MIC [1, 26]: 32 µg/mL (≈ 83.4 µM)
- MIC [1, 27]: 32 µg/mL (≈ 83.4 µM)
